Numbered stars: 1 amine (or outer) side, 2 acyl side, 3 side chain; on linkers, the order of the positions; unused ones are H or OH. Bridge positions count the residues as written; N and C are the ends. Square brackets hold non-standard residues; d marks the D form. Peptide text beside a SMILES is read from it. * marks the point of attachment. C20 diacid = O=C(O)CCCCCCCCCCCCCCCCCCC(=O)*; γGlu = O=C(O)[C@H](CCC(=O)[*:2])N[*:1]; Hyp = O=C(O)[C@@H]1C[C@@H](O)CN1
Target: T1, human amylin receptor (Homo sapiens, UniProt O60896+P30988)
T1 construct: host or cells: CHO-K1/Ga15/AMY3 cells, further stably transfected with a CRE-luciferase plasmid
T1 sequence (P30988 25-474): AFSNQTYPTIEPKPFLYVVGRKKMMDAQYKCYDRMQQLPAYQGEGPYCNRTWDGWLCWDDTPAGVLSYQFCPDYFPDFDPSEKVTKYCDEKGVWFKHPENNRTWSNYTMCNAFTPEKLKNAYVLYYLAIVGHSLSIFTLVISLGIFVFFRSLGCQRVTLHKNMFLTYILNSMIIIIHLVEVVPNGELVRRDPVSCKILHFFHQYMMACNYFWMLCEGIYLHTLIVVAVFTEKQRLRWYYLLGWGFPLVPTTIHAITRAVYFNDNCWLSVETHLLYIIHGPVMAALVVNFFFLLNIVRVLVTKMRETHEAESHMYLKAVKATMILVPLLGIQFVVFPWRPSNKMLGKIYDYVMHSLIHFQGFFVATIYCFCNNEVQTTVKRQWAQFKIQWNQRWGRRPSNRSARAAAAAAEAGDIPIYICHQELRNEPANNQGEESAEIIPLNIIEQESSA
T1 sequence (O60896 24-148 partner): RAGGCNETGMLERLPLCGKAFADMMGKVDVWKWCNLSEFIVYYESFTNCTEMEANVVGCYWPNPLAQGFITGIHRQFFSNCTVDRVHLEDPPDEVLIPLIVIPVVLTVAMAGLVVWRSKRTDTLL
Experiment: Luciferase assay of amylin derivatives in amylin receptor/CRE-luc CHO cell line
Assay type: cell-based
Settings: CHO-K1/Ga15/AMY3 CRE-luc cells, 24 hours incubation, F12 medium containing 10% FBS; read-out: EC50
Description: The experiment was intended to detect the activity or efficacy of the amylin derivatives on a human amylin receptor in vitro by luciferase assay.
50 μL of growth medium (F12 medium containing 10% FBS) was added into each well of a white 96-well plate, and the stably transfected amylin/CRE-lue CHO cells were inoculated into the white 96-well plate at a density of about 20,000 cells/well for activity determination.

| SMILES | EC50 [nM] |
| --- | --- |
| CC[C@H](C)[C@H](NC(=O)[C@@H]1CCCN1C(=O)[C@H](Cc1c[nH]cn1)NC(=O)[C@H](CC(C)C)NC(=O)[C@H](CC(N)=O)NC(=O)[C@H](CC(N)=O)NC(=O)[C@H](CO)NC(=O)[C@H](CO)NC(=O)[C@H](Cc1c[nH]cn1)NC(=O)[C@H](CCCNC(=N)N)NC(=O)[C@H](CC(C)C)NC(=O)[C@H](Cc1ccccc1)NC(=O)[C@H](CC(=O)O)NC(=O)[C@H](C)NC(=O)[C@H](CC(C)C)NC(=O)[C@H](CCCNC(=N)N)NC(=O)[C@H](CCC(N)=O)NC(=O)[C@@H](NC(=O)[C@H](C)NC(=O)[C@@H]1CSSC[C@H](NC(=O)[C@H](CCCCN)NC(=O)CC[C@H](NC(=O)CCCCCCCCCCCCCCCCCCC(=O)O)C(=O)O)C(=O)N[C@@H](CC(N)=O)C(=O)N[C@@H]([C@@H](C)O)C(=O)N[C@@H](C)C(=O)N[C@@H]([C@@H](C)O)C(=O)N1)[C@@H](C)O)C(=O)N[C@@H](CC(C)C)C(=O)N1CCC[C@H]1C(=O)N1CCC[C@H]1C(=O)N[C@H](C(=O)N[C@@H](CC(N)=O)C(=O)N[C@H](C(=O)NCC(=O)N[C@@H](CO)C(=O)N[C@@H](CC(N)=O)C(=O)N[C@H](C(=O)N1C[C@H](O)C[C@H]1C(N)=O)[C@@H](C)O)C(C)C)[C@@H](C)O [PD159] ({C20 diacid-γGlu}-KCNTATCATQRLADFLRHSSNNLHPILPPTNVGSNT[Hyp]-NH2; disulfide 2-7) | 0.037 |
| CC[C@H](C)[C@H](NC(=O)[C@@H]1CCCN1C(=O)[C@H](Cc1c[nH]cn1)NC(=O)[C@H](CC(C)C)NC(=O)[C@H](CC(N)=O)NC(=O)[C@H](CC(N)=O)NC(=O)[C@H](CO)NC(=O)[C@H](CO)NC(=O)[C@H](Cc1c[nH]cn1)NC(=O)[C@H](CCCNC(=N)N)NC(=O)[C@H](CC(C)C)NC(=O)[C@H](Cc1ccccc1)NC(=O)[C@H](CC(=O)O)NC(=O)[C@H](C)NC(=O)[C@H](CC(C)C)NC(=O)[C@H](CCCNC(=N)N)NC(=O)[C@H](CCC(N)=O)NC(=O)[C@@H](NC(=O)[C@H](C)NC(=O)[C@@H]1CSSC[C@H](NC(=O)[C@H](CCCCN)NC(=O)CC[C@H](NC(=O)CCCCCCCCCCCCCCCCCCC(=O)O)C(=O)O)C(=O)N[C@@H](CC(N)=O)C(=O)N[C@@H]([C@@H](C)O)C(=O)N[C@@H](C)C(=O)N[C@@H]([C@@H](C)O)C(=O)N1)[C@@H](C)O)C(=O)N[C@@H](CC(C)C)C(=O)N1CCC[C@H]1C(=O)N1CCC[C@H]1C(=O)N[C@H](C(=O)N[C@@H](CC(N)=O)C(=O)N[C@H](C(=O)NCC(=O)N[C@@H](CO)C(=O)N[C@@H](CC(N)=O)C(=O)N[C@H](C(=O)N1CCC[C@H]1C(N)=O)[C@@H](C)O)C(C)C)[C@@H](C)O [PD162] ({C20 diacid-γGlu}-KCNTATCATQRLADFLRHSSNNLHPILPPTNVGSNTP-NH2; disulfide 2-7 (inferred)) | 0.035 |
| CC[C@H](C)[C@H](NC(=O)[C@@H]1CCCN1C(=O)[C@@H]1CCCN1C(=O)[C@H](CC(C)C)NC(=O)[C@H](CC(N)=O)NC(=O)[C@H](CC(N)=O)NC(=O)[C@H](CO)NC(=O)[C@H](CO)NC(=O)[C@H](Cc1c[nH]cn1)NC(=O)[C@H](CCCNC(=N)N)NC(=O)[C@H](CC(C)C)NC(=O)[C@H](Cc1ccccc1)NC(=O)[C@H](CC(=O)O)NC(=O)[C@H](C)NC(=O)[C@H](CC(C)C)NC(=O)[C@H](CCCNC(=N)N)NC(=O)[C@H](CCC(N)=O)NC(=O)[C@@H](NC(=O)[C@H](C)NC(=O)[C@@H]1CSSC[C@H](NC(=O)[C@H](CCCCN)NC(=O)CC[C@H](NC(=O)CCCCCCCCCCCCCCCCCCC(=O)O)C(=O)O)C(=O)N[C@@H](CC(N)=O)C(=O)N[C@@H]([C@@H](C)O)C(=O)N[C@@H](C)C(=O)N[C@@H]([C@@H](C)O)C(=O)N1)[C@@H](C)O)C(=O)N[C@@H](CC(C)C)C(=O)N1CCC[C@H]1C(=O)N1CCC[C@H]1C(=O)N[C@H](C(=O)N[C@@H](CC(N)=O)C(=O)N[C@H](C(=O)NCC(=O)N[C@@H](CO)C(=O)N[C@@H](CC(N)=O)C(=O)N[C@H](C(=O)N1CCC[C@H]1C(N)=O)[C@@H](C)O)C(C)C)[C@@H](C)O [PD163] ({C20 diacid-γGlu}-KCNTATCATQRLADFLRHSSNNLPPILPPTNVGSNTP-NH2; disulfide 2-7 (inferred)) | 0.084 |
| CC[C@H](C)[C@H](NC(=O)[C@@H]1CCCN1C(=O)[C@H](CC(=O)O)NC(=O)[C@H](CC(C)C)NC(=O)[C@H](CC(N)=O)NC(=O)[C@H](CC(N)=O)NC(=O)[C@H](CO)NC(=O)[C@H](CO)NC(=O)[C@H](Cc1c[nH]cn1)NC(=O)[C@H](CCCNC(=N)N)NC(=O)[C@H](CC(C)C)NC(=O)[C@H](Cc1ccccc1)NC(=O)[C@H](CC(=O)O)NC(=O)[C@H](C)NC(=O)[C@H](CC(C)C)NC(=O)[C@H](CCCNC(=N)N)NC(=O)[C@H](CCC(N)=O)NC(=O)[C@@H](NC(=O)[C@H](C)NC(=O)[C@@H]1CSSC[C@H](NC(=O)[C@H](CCCCN)NC(=O)CC[C@H](NC(=O)CCCCCCCCCCCCCCCCCCC(=O)O)C(=O)O)C(=O)N[C@@H](CC(N)=O)C(=O)N[C@@H]([C@@H](C)O)C(=O)N[C@@H](C)C(=O)N[C@@H]([C@@H](C)O)C(=O)N1)[C@@H](C)O)C(=O)N[C@@H](CC(C)C)C(=O)N1CCC[C@H]1C(=O)N1CCC[C@H]1C(=O)N[C@H](C(=O)N[C@@H](CC(N)=O)C(=O)N[C@H](C(=O)NCC(=O)N[C@@H](CO)C(=O)N[C@@H](CC(N)=O)C(=O)N[C@H](C(=O)N1CCC[C@H]1C(N)=O)[C@@H](C)O)C(C)C)[C@@H](C)O [PD164] ({C20 diacid-γGlu}-KCNTATCATQRLADFLRHSSNNLDPILPPTNVGSNTP-NH2; disulfide 2-7 (inferred)) | 0.111 |
| CC[C@H](C)[C@H](NC(=O)[C@@H]1CCCN1C(=O)[C@H](CC(N)=O)NC(=O)[C@H](CC(C)C)NC(=O)[C@H](CC(N)=O)NC(=O)[C@H](CC(N)=O)NC(=O)[C@H](CO)NC(=O)[C@H](CO)NC(=O)[C@H](Cc1c[nH]cn1)NC(=O)[C@H](CCCNC(=N)N)NC(=O)[C@H](CC(C)C)NC(=O)[C@H](Cc1ccccc1)NC(=O)[C@H](CC(=O)O)NC(=O)[C@H](C)NC(=O)[C@H](CC(C)C)NC(=O)[C@H](CCCNC(=N)N)NC(=O)[C@H](CCC(N)=O)NC(=O)[C@@H](NC(=O)[C@H](C)NC(=O)[C@@H]1CSSC[C@H](NC(=O)[C@H](CCCCN)NC(=O)CC[C@H](NC(=O)CCCCCCCCCCCCCCCCCCC(=O)O)C(=O)O)C(=O)N[C@@H](CC(N)=O)C(=O)N[C@@H]([C@@H](C)O)C(=O)N[C@@H](C)C(=O)N[C@@H]([C@@H](C)O)C(=O)N1)[C@@H](C)O)C(=O)N[C@@H](CC(C)C)C(=O)N1CCC[C@H]1C(=O)N1CCC[C@H]1C(=O)N[C@H](C(=O)N[C@@H](CC(N)=O)C(=O)N[C@H](C(=O)NCC(=O)N[C@@H](CO)C(=O)N[C@@H](CC(N)=O)C(=O)N[C@H](C(=O)N1CCC[C@H]1C(N)=O)[C@@H](C)O)C(C)C)[C@@H](C)O [PD165] ({C20 diacid-γGlu}-KCNTATCATQRLADFLRHSSNNLNPILPPTNVGSNTP-NH2; disulfide 2-7 (inferred)) | 0.05 |

Source: US20260166128A1, “HUMAN AMYLIN ANALOG, AND DERIVATIVE THEREOF AND USE THEREOF” (priority 2022, published 2026)
